Test system: human keratinocytes
Experiment: Neutral red incorporation test: cytotoxicity of cadmium chloride on human keratinocytes in culture, with or without protecting agent
Type: cell-based
Settings: for protection of cells against the toxicity of cadmium chloride (in words): protecting agent at 50 and 100 μM
Description: The cytotoxic effect of cadmium on human keratinocytes in culture was evaluated by means of a technique of measuring the cell viability, known as the neutral red incorporation test (E. Borenfreund and J. A. Puerner, Tissue Culture Methods. 1984, 9: 7-9).
The study was performed on a monolayer culture of human keratinocytes obtained from plastic surgeries. The cells are inoculated on D-3 into 96-well culture dishes at a rate of 25 000 cells/cm^2 in 100 μl of culture medium (calf serum-free defined medium, NR2, Biofluids). The incubations are performed in an incubator at 37° C. under a humid atmosphere enriched with 5% CO2.
The cells are treated for 24 hours with increasing concentrations (0, 10, 25, 50, 75, 100, 150 and 200 μM) of cadmium chloride (CdCl2) alone, so as to determine its cytotoxicity. In parallel, a treatment is performed under the same conditions, but in the presence of N,N′-bis(3,4,5-trimethoxybenzyl)ethylenediamine-N,N′-diacetic acid (100 and 50 μm). The incubations are performed in an incubator at 37° C., [lacuna] % CO2 under a humid atmosphere.
At the end of the period of contact, a neutral red incorporation test is performed and the results are read on a spectrophotometer at 550 nm.
To do this, the cells are rinsed with PBS buffer in order to remove the treatment solutions; 100 μl per well of a 0.5 mg/ml neutral red solution are added to the culture medium; the mixture is incubated at 37° C. and 5% CO2, under a humid atmosphere, for three hours; the resulting mixture is rinsed with PBS; fixing is performed with formaldehyde/calcium solution for one minute; the neutral red is extracted with 100 μl/well of ethanol-acetic acid solution; the optical density is read on the spectrophotometer at 550 nm and the CdCl2 concentration, resulting in a 50% reduction in viability=IC-50, is calculated.

## COc1cc(CN(CCN(CC(=O)O)Cc2cc(OC)c(OC)c(OC)c2)CC(=O)O)cc(OC)c1OC [N,N′-bis(3,4,5-trimethoxybenzyl)ethylenediamine-N,N′-diacetic acid]
Human keratinocytes
  protection of cells against the toxicity of cadmium chloride (in words): significantly protects the cells against the toxicity of this pollutant
Human keratinocytes, listed as N,N′-dimethylethylenediamine-N,N′-diacetic acid
  protection of cells against the toxicity of cadmium chloride (in words): cytotoxicity of cadmium chloride decreases significantly
Protecting agent at 50 μM
  factor by which the cytotoxicity of cadmium chloride decreases: 2.3
Protecting agent at 100 μM
  factor by which the cytotoxicity of cadmium chloride decreases: 3.1

## [Cl][Cd][Cl] [cadmium chloride, reference compound]
CdCl2 alone, 24 hours, human keratinocytes, neutral red, concentration giving 50% drop in cell viability, read-out: IC.50 of cadmium chloride without protecting agent (Mean ± SEM)
  IC50: 39 µM

Reference: US20040039059A1, “Use of n,n' -dibenzyl ethylene diamine-n, n'- diacetic acid derivatives as anti-pollution agent” (priority 2000, published 2004)
